Read-outs that look alike come from different tables or passages of the source. Blank lines part the entries; values can stand above or below the substance they belong to. Ends that are not written are not given here.
Tests used:
[1] = target: PCNA; design: method as in 11 sources, ref PMID 15576034 ||| ref PMID 10858286 ||| ref PMID 23139781 ||| ref PMID 30655288 ||| ref PMID 28621305 ||| ...; details: ITC, cited from earlier work
[2] = target: PCNA; design: method as in 4 sources, one per row (each row's own in cited_ref): ref PMID 19208623 ||| ref PMID 8876181 ||| ref PMID 24728180 ||| ref PMID 10899134; details: SPR, cited from earlier work
[3] = target: T1, human PCNA (Homo sapiens, UniProt P12004); experiment: ITC, PCNA injected into peptide; type: binding
T1 sequence (P12004 whole entry): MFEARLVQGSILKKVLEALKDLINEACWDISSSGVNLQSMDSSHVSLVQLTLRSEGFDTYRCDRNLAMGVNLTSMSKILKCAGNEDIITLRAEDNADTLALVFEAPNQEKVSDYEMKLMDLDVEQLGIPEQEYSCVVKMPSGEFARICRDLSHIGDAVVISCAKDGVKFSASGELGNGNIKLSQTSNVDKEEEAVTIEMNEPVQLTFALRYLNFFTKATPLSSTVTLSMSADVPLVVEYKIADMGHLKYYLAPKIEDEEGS

[4] = target: T1, human PCNA; experiment: SPR binding of peptides to His6-tagged PCNA captured by anti-His6 antibody; details: for Kd: Table S2, SPR, pH 7.5, T 298, This work
[5] = target: PCNA; details: cited from earlier work
From the text: Supplement 18_2019_3150_MOESM1_ESM.docx, table 2: Table S2: Binding affinities of curated PCNA binding proteins. | column: KD (M)

[6] = pH 7.5, T 303, ref PMID 15576034
[7] = pH 7.5, T 298, ref PMID 19208623
[8] = SPR single-cycle kinetics, bimolecular model, 10 mM HEPES, 150 mM NaCl, 0.05% P20, pH 7.4, 25 °C
[9] = pH 7.5, T 279, ref PMID 23677613

Substance: RQGSTQGRLDDFFKVTGSLSSA [FEN1 332–353, literature FEN1 peptide]
- Kd [1, 6]: 59 µM

Substance: QHGKKDSKITDHFMRLPKA [PARG 402–420, literature PARG peptide]
- Kd ([1]; pH 7.4, T 298, ref PMID 28934471): 3.3 µM

Substance: CKRPRPEGMQTLESFFKPLTH [PolEta 694–713, literature DNA polymerase η peptide]
- Kd [2, 7]: 400 nM

Substance: PKWQKGIGEFFR [p15 59–70, literature p15(PAF) peptide]
- Kd ([1]; pH 7, T 308, ref PMID 25762514): 83 µM

Substance: SKSRQGSTQGRLDDFF [FEN1 329–344, literature FEN1 peptide]
- Kd ([2]; pH 7.4, T not given, ref PMID 24728180): 84.6 nM

- fold change (increase) of affinity for PCNA on grafting p21 flanking regions to Fen1 ([3]; ITC, versus Fen1 peptide): 60 fold
Substance: Ac-RKRRQGRLDDFFHSKRRL-NH2

- Kd ([3]; 10 mM HEPES, 150 mM NaCl, 1 mM EDTA, 1 mM TCEP, pH 7.4, 25 °C, one set of sites, mean of triplicates): 8.3 ± 1.9 µM
Substance: Ac-SESSQTSMTDFYHSKRRL-NH2 [S1]

- Kd [4]: 34.1 µM
Substance: MIGQKTLYSFFTPSP [UNG2]

- koff [4, 8]: 0.14 ± 0.0003 s⁻¹
- kon [4, 8]: 1.7e+06 ± 1e+10 M⁻¹ s⁻¹
Substance: Ac-RQTSMTDFYHSKRRL-NH2 [p21]

Substance: QVRRQSLASKHGSDITRFLVKK [ZRANB3 1058–79, literature ZRANB3 APIM peptide]
- Kd ([1]; pH not given, T 298, ref PMID 28621305): 9.2 µM

Substance: GKANRQVSITGFFQRK* [p66Polδ 451–466, literature peptide of DNA polymerase δ p66 subunit]
- Kd [1, 6]: 15.6 µM

- Kd [4]: 10.9 µM
Substance: Ac-MDRWLVKW-NH2 [APIM]

Substance: KDKFIRRWVHKEGFSG [FBH1 605-620, literature FBH1 peptide]
- Kd [1, 9]: 0.59 µM

Substance: KRRQTSMTDFYH [p21 141–152, literature p21 peptide]
- Kd ([1]; pH 7, T 303, ref PMID 23139781): 0.625 µM
- Kd ([1]; pH 7, T 308, ref PMID 23139781): 1.1 µM

Substance: PANGEQLHLVNYVEDTLDSIES [ING1 4–25, literature ING1 peptide]
- Kd ([5]; NMR, pH 7, T 308, ref PMID 23139781): 12500 µM

Substance: KTSPGRSVKEEAQNLIRHFFHGRARCES [RecQ5 952-979, literature RecQ5 peptide]
- Kd ([1]; pH 7.0, T 308, ref PMID 30655288): 210 µM

Substance: MDRFLVKGAQGGLLRK [ABH2 1-16, literature ABH2 APIM peptide]
- Kd [1, 9]: 0.32 µM

Substance: RGQGSQRCIPEFFLAGKQPCTN [FBH1 52–72, literature FBH1 peptide]
- Kd [1, 9]: 0.25 µM

Substance: p15 1–111: full-length p15(PAF) protein, literature
- Kd ([1]; pH 7, T 298, ref PMID 25762514): 0.11 µM
- Kd ([1]; pH 7, T 308, ref PMID 25762514): 2.5 µM

Substance: KQRVRVKTVPSLFQAKLD TFLWS [TRAIP 447–469, literature TRAIP peptide]
- Kd ([1]; pH 7.4, T 298, ref PMID 26711499): 30.7 µM

Substance: FTHFEKEKQHDIRSFFVPQPKK [ZRANB3 511–532, literature ZRANB3 PIP-box peptide]
- Kd ([5]; method not given, pH 7.5, T 298, ref PMID 28621305): 4.8 µM

Substance: SQGRKRRQTSMTDFYHSKRR [p21 137–156, literature p21 peptide]
- Kd [2, 7]: 65 nM

Substance: MGRKRLITDSYPVVKRREG [p12 1-19]
- Kd ([5]; NMR, pH 7.0, T 308, ref PMID 30655288): 130 µM
- Kd ([1]; pH 7.0, T 298, ref PMID 30655288): 38 µM

- fold drop in the affinity for PCNA on mutating Q at the first position to alanine ([3]; ITC): 50 fold
Substance: Ac-RKRRATSMTDFYHSKRRL-NH2 [p21^140–157,Q144A]

- Kd [4]: 2.61 µM
Substance: Ac-RQSTLYSFFPKSPAL-NH2 [MSH6]

Substance: PRPEGMQTLESFFKPLTH* [PolEta 696–713, literature DNA polymerase η peptide]
- Kd ([1]; pH 7.4, T 298, ref PMID 26903512): 11 µM

- Kd [4]: 44.9 µM
Substance: Ac-TQGRLDDFFKVTGSL-NH2 [FEN1]

— publication PMC6881253, “The PCNA interaction motifs revisited: thinking outside the PIP-box” (Cellular and Molecular Life Sciences: CMLS, 2019)
